{"source": "patent US8530652B2", "about": "“Pyrrolopyrazoles, potent kinase inhibitors” (Agouron Pharmaceuticals, Inc., priority 2005, dated 2013)", "key": {"[1]": {"molecular_target": "PAK4 kinase domain (PAK4 KD) (Homo sapiens (Human), UniProt O96013)", "sequence (O96013 321-572)": "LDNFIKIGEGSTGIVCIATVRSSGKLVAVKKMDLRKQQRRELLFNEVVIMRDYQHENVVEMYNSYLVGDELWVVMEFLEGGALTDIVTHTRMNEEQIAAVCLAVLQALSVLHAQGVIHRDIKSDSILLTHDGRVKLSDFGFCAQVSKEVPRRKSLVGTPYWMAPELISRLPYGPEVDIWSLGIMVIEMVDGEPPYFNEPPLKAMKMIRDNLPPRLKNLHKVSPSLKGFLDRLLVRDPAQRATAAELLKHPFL", "test": "PAK4 kinase domain enzymatic assay (coupled PK/LDH, NADH absorbance at 340 nm)", "assay_type": "biochemical", "settings": "PAK4 kinase domain, 25 nM PAK4 KD, 0.04 mM ATP, pH 7.5", "source_text": "Cloning, expression, and purification of recombinant PAK4 Kinase domain (PAK4 KD): The cDNA coding for PAK4 was amplified from the EST clone (#12) (purchased from Research Genetics) by using PCR. […] The PCR amplified product was cloned into Topo vector (Invitrogen Inc.), and verified by DNA sequencing. PAK4 KD was then subcloned into expression plasmid pET28a(+), pET24a(+), or pGST4.5. The recombinant plasmids containing PAK4 KD was transformed into BL21(DE3) cells for recombinant protein expression. […] The cells were then harvested and lyzed for protein purification. Ni-NTA column (pET28a(+), pET24a(+)) and glutathione column (pGST4.5) were used for the purification.\nPAK4 kinase domain enzymatic assay conditions: the enzymatic activity of PAK4 KD was measured by its ability to catalyze the transfer of a phosphate residue from a nucleoside triphosphate to an amino acid side chain of a commercially available peptide (amino acid sequence […]). The conversion of ATP to ADP accompanies the catalytic reaction. The PAK4 KD catalyzed production of ADP from ATP was coupled to the oxidation of NADH through the activities of pyruvate kinase (PK) and lactate dehydrogenase (LDH). The conversion of NADH to NAD^+ is monitored by the decrease in absorbance at 340 nm (e340=6.22 cm^−1mM^−1) using a Molecular Devices SPECTRAMAX 190 in conjunction with the Biomec FX. Typical reaction solutions contain 2 mM phosphoenolpyruvate, 0.35 mM NADH, 10 mM MgCl2, 1 mM DTT, 0.4 mM peptide ([…]) 0.04 mM ATP, 1 units/mL PK, 1 units/mL LDH, 0.01% Tween 20 in 50 mM HEPES, pH 7.5. […] The PAK KD Ki of each compound of the invention (the inhibitor) was calculated based on multiple of Percent Inhibition numbers of the inhibitor at different inhibitor concentrations. The peptide (amino sequence […]) was purchased from American Peptide Company. NADH, MgCl2, HEPES, DTT, ATP and PK/LDH were purchased from Sigma. Tween 20 was purchased from Calbiochem."}, "[2]": {"molecular_target": "PAK4 kinase activity in whole cells (TR-293-KDG, modified HEK 293 overexpressing GEF-H1b and PAK4 KD) (Homo sapiens (Human), UniProt O96013)", "sequence (O96013 321-572)": "as above", "test": "PAK4 cellular assay: sandwich ELISA of PAK4-dependent phosphorylation of GEF-H1b in TR-293-KDG cells", "assay_type": "cell-based", "settings": "doxycycline-induced, 3-hour exposure, phospho-GEF-H1b ELISA", "source_text": "A sandwich ELISA method was used to measure the PAK4 kinase activity in whole cells. The level of PAK4-dependent phosphorylation of GEF-H1b can be determined by monitoring the binding of a phosphospecific antibody to GEF-H1b. A modified HEK 293 cell line is used in the bioassay and it has been engineered to overexpress both GEF-H1b and the kinase domain (KD) of PAK4. The KD of PAK4 is inducible in this cell line by tetracycline (Trex system, Invitrogen). The name of this cell line has been designated TR-293-KDG. To establish a phosphorylation event on GEF-H1, cells are induced with doxycycline to express the PAK4 KD. […] Candidate substance effect is measured as the ability to block this phosphorylation event.\nELISA plate was prepared by pre-coating the plates with a capture antibody (α-HA-tag mouse monoclonal antibody), blocked with BSA, and washed in 0.1% tween 20 in tris-buffered saline (TBST). Tissue culture plates (precoated with poly-D-lysine) were seeded with TR-293-KDG cells. The TR-293-KDG Cells were induced to express the PAK4 KD with doxycycline overnight and subsequently & concomitantly treated with candidate substances or diluent for an additional 3-hour, continuous exposure. Cells were then lysed with a modified RIPA buffer supplemented with protease inhibitors. The fresh whole cell lysates were then added to the ELISA plate for 2-hours. Between all subsequent steps plates were washed 4 times with TBST. Detection antibody (recognizing the phospho-specific eptitope on GEF-H1b) was added for 1 hour, followed by addition of an enzyme linked goat α-rabbit secondary antibody for 45 minutes. […] EC50 values were calculated by sigmoid curve fitting using a four-parameter analysis."}}, "note": "pEC50, pKi: −log10 of the molar value."}
{"smiles": "CCCOc1nc(Cl)nc(Nc2n[nH]c3c2CN(C(=O)N[C@@H]2C[C@H]2c2ccccc2)C3(C)C)n1", "note": "(relative stereo) [Example 7, 3-[(4-chloro-6-propoxy-1,3,5-triazin-2-yl)amino]-6,6-dimethyl-N-[trans-2-phenylcyclopropyl]-4,6-dihydropyrrolo[3,4-c]pyrazole-5(1H)-carboxamide]", "values": [{"measurement": "pKi", "setting": "[1]", "result": 7.06}, {"measurement": "pEC50", "setting": "[2]", "result": "< 5.40"}]}
{"smiles": "Cn1cnc2c(Nc3n[nH]c4c3CN(C(=O)N[C@@H]3C[C@H]3c3ccccc3)C4(C)C)ncnc21", "note": "(relative stereo) [Example 36, 6,6-dimethyl-3-[(9-methyl-9H-purin-6-yl)amino]-N-[trans-2-phenylcyclopropyl]-4,6-dihydropyrrolo[3,4-c]pyrazole-5(1H)-carboxamide]", "values": [{"measurement": "pEC50", "setting": "[2]", "result": "< 5.40"}]}
{"smiles": "Cc1nc(Nc2n[nH]c3c2CN(C(=O)N[C@@H]2C[C@H]2c2ccccc2)C3(C)C)cc(N2CCOCC2)n1", "note": "(relative stereo) [Example 34, 6,6-dimethyl-3-[(2-methyl-6-morpholin-4-ylpyrimidin-4-yl)amino]-N-[trans-2-phenylcyclopropyl]-4,6-dihydropyrrolo[3,4-c]pyrazole-5(1H)-carboxamide]", "values": [{"measurement": "pKi", "setting": "[1]", "result": 7.68}, {"measurement": "pEC50", "setting": "[2]", "result": 6.11}]}
{"smiles": "COc1ncc(F)c(Nc2n[nH]c3c2CN(C(=O)O[C@H](CN(C)C)c2ccccc2)C3(C)C)n1", "note": "[Example 79, (1S)-2-(dimethylamino)-1-phenylethyl 3-[(5-fluoro-2-methoxypyrimidin-4-yl)amino]-6,6-dimethyl-4,6-dihydropyrrolo[3,4-c]pyrazole-5(1H)-carboxylate]", "values": [{"measurement": "pKi", "setting": "[1]", "result": 7.41}, {"measurement": "pEC50", "setting": "[2]", "result": "> 8.41"}]}
{"smiles": "CN(C)C[C@@H](OC(=O)N1Cc2c(Nc3ccnc(C(F)(F)F)n3)n[nH]c2C1(C)C)c1ccccc1", "note": "[Example 76, (1S)-2-(dimethylamino)-1-phenylethyl 6,6-dimethyl-3-{[2-(trifluoromethyl)pyrimidin-4-yl]amino}-4,6-dihydropyrrolo[3,4-c]pyrazole-5(1H)-carboxylate]", "values": [{"measurement": "pKi", "setting": "[1]", "result": 8.08}, {"measurement": "pEC50", "setting": "[2]", "result": "> 8.41"}]}
{"smiles": "CN(C)C[C@@H](OC(=O)N1Cc2c(Nc3ncnc4c3ncn4C)n[nH]c2C1(C)C)c1ccccc1", "note": "[Example 78, (1S)-2-(dimethylamino)-1-phenylethyl 6,6-dimethyl-3-[(9-methyl-9H-purin-6-yl)amino]-4,6-dihydropyrrolo[3,4-c]pyrazole-5(1H)-carboxylate]", "values": [{"measurement": "pKi", "setting": "[1]", "result": 6.48}, {"measurement": "pEC50", "setting": "[2]", "result": "< 5.40"}]}
{"smiles": "Cc1cc2c(Nc3n[nH]c4c3CN(C(=O)N[C@H](CN(C)C)c3ccccc3)C4(C)C)ncnc2s1", "note": "[Example 62, N-[(1S)-2-(dimethylamino)-1-phenylethyl]-6,6-dimethyl-3-[(6-methylthieno[2,3-d]pyrimidin-4-yl)amino]-4,6-dihydropyrrolo[3,4-c]pyrazole-5(1H)-carboxamide]", "values": [{"measurement": "pKi", "setting": "[1]", "result": 7.82}, {"measurement": "pEC50", "setting": "[2]", "result": 7.82}]}
{"smiles": "CN(C)C[C@@H](OC(=O)N1Cc2c(Nc3ncncc3F)n[nH]c2C1(C)C)c1ccccc1", "note": "[Example 80, (1S)-2-(dimethylamino)-1-phenylethyl 3-[(5-fluoropyrimidin-4-yl)amino]-6,6-dimethyl-4,6-dihydropyrrolo[3,4-c]pyrazole-5(1H)-carboxylate]", "values": [{"measurement": "pKi", "setting": "[1]", "result": 6.92}, {"measurement": "pEC50", "setting": "[2]", "result": 7.70}]}
{"smiles": "CN(C)C[C@@H](NC(=O)N1Cc2c(Nc3ncnc4ccsc34)n[nH]c2C1(C)C)c1ccccc1", "note": "[Example 5, N-[(1S)-2-(dimethylamino)-1-phenylethyl]-6,6-dimethyl-3-(thieno[3,2-d]pyrimidin-4-ylamino)-4,6-dihydropyrrolo[3,4-c]pyrazole-5(1H)-carboxamide]", "values": [{"measurement": "pKi", "setting": "[1]", "result": 6.66}, {"measurement": "pEC50", "setting": "[2]", "result": 7.06}]}
{"smiles": "CCOc1ncc(F)c(Nc2n[nH]c3c2CN(C(=O)N[C@H](CN(C)C)c2ccccc2)C3(C)C)n1", "note": "[Example 59, N-[(1S)-2-(dimethylamino)-1-phenylethyl]-3-[(2-ethoxy-5-fluoropyrimidin-4-yl)amino]-6,6-dimethyl-4,6-dihydropyrrolo[3,4-c]pyrazole-5(1H)-carboxamide]", "values": [{"measurement": "pKi", "setting": "[1]", "result": 6.77}, {"measurement": "pEC50", "setting": "[2]", "result": 8.62}]}
{"smiles": "CN(C)C[C@@H](OC(=O)N1Cc2c(Nc3nc(C#N)nc4ccccc34)n[nH]c2C1(C)C)c1ccccc1", "note": "[Example 74, (1S)-2-(dimethylamino)-1-phenylethyl 3-[(2-cyanoquinazolin-4-yl)amino]-6,6-dimethyl-4,6-dihydropyrrolo[3,4-c]pyrazole-5(1H)-carboxylate]", "values": [{"measurement": "pKi", "setting": "[1]", "result": 8.44}, {"measurement": "pEC50", "setting": "[2]", "result": "> 8.41"}]}
{"smiles": "CN(C)C[C@@H](NC(=O)N1Cc2c(Nc3ccnc(C#N)n3)n[nH]c2C1(C)C)c1ccccc1", "note": "[Example 60, 3-[(2-cyanopyrimidin-4-yl)amino]-N-[(1S)-2-(dimethylamino)-1-phenylethyl]-6,6-dimethyl-4,6-dihydropyrrolo[3,4-c]pyrazole-5(1H)-carboxamide]", "values": [{"measurement": "pKi", "setting": "[1]", "result": 7.40}, {"measurement": "pEC50", "setting": "[2]", "result": "> 8.41"}]}
{"smiles": "CC1(C)c2[nH]nc(Nc3nc(C(F)(F)F)nc4ccsc34)c2CN1C(=O)N[C@@H]1C[C@H]1c1ccccc1", "note": "(relative stereo) [Example 45, 6,6-dimethyl-N-[trans-2-phenylcyclopropyl]-3-{[2-(trifluoromethyl)thieno[3,2-d]pyrimidin-4-yl]amino}-4,6-dihydropyrrolo[3,4-c]pyrazole-5(1H)-carboxamide]", "values": [{"measurement": "pKi", "setting": "[1]", "result": 7.60}, {"measurement": "pEC50", "setting": "[2]", "result": 7.49}]}
{"smiles": "Cc1nc(Nc2n[nH]c3c2CN(C(=O)O[C@H](CN(C)C)c2ccccc2)C3(C)C)c2ccsc2n1", "note": "[Example 69, (1S)-2-(dimethylamino)-1-phenylethyl 6,6-dimethyl-3-[(2-methylthieno[2,3-d]pyrimidin-4-yl)amino]-4,6-dihydropyrrolo[3,4-c]pyrazole-5(1H)-carboxylate]", "values": [{"measurement": "pKi", "setting": "[1]", "result": 8.72}, {"measurement": "pEC50", "setting": "[2]", "result": 8.52}]}
{"smiles": "CN(C)C[C@@H](NC(=O)N1Cc2c(Nc3ncnc4ccoc34)n[nH]c2C1(C)C)c1ccccc1", "note": "[Example 83, N-[(1S)-2-(dimethylamino)-1-phenylethyl]-3-(furo[3,2-d]pyrimidin-4-ylamino)-6,6-dimethyl-4,6-dihydropyrrolo[3,4-c]pyrazole-5(1H)-carboxamide]", "values": [{"measurement": "pKi", "setting": "[1]", "result": 7.24}, {"measurement": "pEC50", "setting": "[2]", "result": 7.08}]}
{"smiles": "Cc1csc2c(Nc3n[nH]c4c3CN(C(=O)N[C@H]3C[C@@H]3c3ccccc3)C4(C)C)ncnc12", "note": "(relative stereo) [Example 49, 6,6-dimethyl-3-[(7-methylthieno[3,2-d]pyrimidin-4-yl)amino]-N-[trans-2-phenylcyclopropyl]-4,6-dihydropyrrolo[3,4-c]pyrazole-5(1H)-carboxamide]", "values": [{"measurement": "pKi", "setting": "[1]", "result": 6.80}, {"measurement": "pEC50", "setting": "[2]", "result": 6.48}]}
{"smiles": "Cc1ncnc(Nc2n[nH]c3c2CN(C(=O)N[C@H](CN(C)C)c2ccccc2)C3(C)C)c1F", "note": "[Example 56, N-[(1S)-2-(dimethylamino)-1-phenylethyl]-3-[(5-fluoro-6-methylpyrimidin-4-yl)amino]-6,6-dimethyl-4,6-dihydropyrrolo[3,4-c]pyrazole-5(1H)-carboxamide]", "values": [{"measurement": "pKi", "setting": "[1]", "result": 6.62}, {"measurement": "pEC50", "setting": "[2]", "result": 6.24}]}
{"smiles": "CN(C)C[C@@H](NC(=O)N1Cc2c(Nc3ccnc(C(F)(F)F)n3)n[nH]c2C1(C)C)c1ccccc1", "note": "[Example 55, N-[(1S)-2-(dimethylamino)-1-phenylethyl]-6,6-dimethyl-3-{[2-(trifluoromethyl)pyrimidin-4-yl]amino}-4,6-dihydropyrrolo[3,4-c]pyrazole-5(1H)-carboxamide]", "values": [{"measurement": "pEC50", "setting": "[2]", "result": "< 5.40"}]}
{"smiles": "Cc1nccc(Nc2n[nH]c3c2CN(C(=O)N[C@@H]2C[C@H]2c2ccccc2)C3(C)C)n1", "note": "(relative stereo) [Example 39, 6,6-dimethyl-3-[(2-methylpyrimidin-4-yl)amino]-N-[trans-2-phenylcyclopropyl]-4,6-dihydropyrrolo[3,4-c]pyrazole-5(1H)-carboxamide]", "values": [{"measurement": "pEC50", "setting": "[2]", "result": "< 5.40"}]}
